Data: paper PMC6683083, “Lupin Peptide T9 (GQEQSHQDEGVIVR) Modulates the Mutant PCSK9^D374Y Pathway: in vitro Characterization of its Dual Hypocholesterolemic Behavior” (Nutrients, 2019)
Entries after “also recorded” stand apart in the source; their conditions may differ.

Columns and labels:
[1] = target: T1, HMGCoAR (Homo sapiens, UniProt P04035); assay: In vitro HMGCoAR activity assay (Sigma kit); assay type: biochemical; conditions: 10^−5 to 10^−3 M; 37 °C; NADPH oxidation, absorbance at 340 nm, 0 and 10 min; means ± SD
T1 construct: purchased Sigma (Sigma-Aldrich, St. Louis, MO, USA)
T1 sequence (P04035 426-888 limits assumed): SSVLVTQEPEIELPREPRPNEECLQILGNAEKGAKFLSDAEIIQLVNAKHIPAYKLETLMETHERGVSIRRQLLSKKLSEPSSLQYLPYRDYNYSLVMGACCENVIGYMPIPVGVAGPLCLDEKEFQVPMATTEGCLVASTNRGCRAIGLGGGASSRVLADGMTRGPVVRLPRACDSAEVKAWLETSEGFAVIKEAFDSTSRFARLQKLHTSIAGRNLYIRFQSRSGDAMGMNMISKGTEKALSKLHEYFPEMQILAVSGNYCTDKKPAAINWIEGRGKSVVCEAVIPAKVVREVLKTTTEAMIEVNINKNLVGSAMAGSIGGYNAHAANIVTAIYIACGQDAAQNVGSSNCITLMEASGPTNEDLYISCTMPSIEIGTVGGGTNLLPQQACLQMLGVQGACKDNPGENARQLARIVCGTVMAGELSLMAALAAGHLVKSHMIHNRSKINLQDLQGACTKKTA
Description: The assay buffer, NADPH, substrate solution, and HMGCoAR were provided in the HMGCoAR Assay Kit (Sigma). The experiments were carried out as previously described. See Supplementary Materials for further details.
In vitro experiments were performed in order to confirm the in silico study according to which T9 was a potential inhibitor of the HMGCoAR activity. Peptide concentrations ranging from 10^−5 to 10^−3 M were tested.
Brief description of material and methods
Dulbecco’s modified Eagle’s medium (DMEM), stable L-glutamine, fetal bovine serum (FBS), phosphate buffered saline (PBS), penicillin/streptomycin, chemiluminescent reagent, and 96-well plates were purchased from Euroclone (Milan, Italy). […]
The assay buffer, NADPH, substrate solution, and HMGCoAR were provided in the HMGCoAR Assay Kit (Sigma). […] The absorbance at time 0 and 10 min were recorded. The HMGCoAR-dependent oxidation of NADPH and the inhibition properties of lupin peptides were measured by the absorbance reduction at 340 nm read by a microplate reader […]
Transfected HepG2 cells (1.5 × 10^5 cells/well) were treated with 100 μM T9 for 24 h. […] After centrifugation at 16,060 g for 15 min at 4 °C, the supernatant was recovered and total proteins were quantified by the Bradford method. […]

[2] = test system: human intestinal Caco-2 cells; conditions: human intestinal Caco-2 cells / enterocytes; ref [13]; cited from earlier work
From the text: A previous study has shown that T9 impairs the protein–protein interaction between mutant D374Y Proprotein Convertase Subtilisin/Kexin 9 (PCSK9^D374Y) and the low-density lipoprotein receptor (LDLR), thus exerting a hypocholesterolemic effect. […] The present ... || GQEQSHQDEGVIVR (T9) is a peptide, deriving from the hydrolysis of β-conglutin with trypsin, showing a pI of 4.3, a hydrophobicity value of 25.97 Kcal mol^−1, and a net charge of −2 at pH 7.0. Its 14-aminoacids sequence comprises a polar negatively charged N-terminal, containing a glutamate residue, and a nonpolar positively charged C-terminal, containing an arginine residue. […] Two previous in silico studies have predicted the potential ...

[3] = test system: intestinal peptidases; conditions: ref [13]; cited from earlier work
From the text: GQEQSHQDEGVIVR (T9) is a peptide, deriving from the hydrolysis of β-conglutin with trypsin, showing a pI of 4.3, a hydrophobicity value of 25.97 Kcal mol^−1, and a net charge of −2 at pH 7.0. Its 14-aminoacids sequence comprises a polar negatively charged N-terminal, containing a glutamate residue, and a nonpolar positively charged C-terminal, containing an arginine residue. […] Two previous in silico studies have predicted the potential ...

- IC50 [1]: 99.5 ± 0.56 µM
Compound: CC[C@H](C)[C@H](NC(=O)[C@@H](NC(=O)CNC(=O)[C@H](CCC(=O)O)NC(=O)[C@H](CC(=O)O)NC(=O)[C@H](CCC(N)=O)NC(=O)[C@H](Cc1cnc[nH]1)NC(=O)[C@H](CO)NC(=O)[C@H](CCC(N)=O)NC(=O)[C@H](CCC(=O)O)NC(=O)[C@H](CCC(N)=O)NC(=O)CN)C(C)C)C(=O)N[C@H](C(=O)N[C@@H](CCCNC(=N)N)C(=O)O)C(C)C [T9]
- intestinal absorption (in words) [2]: absorbed in human intestinal Caco-2 cells; also recorded: absorbed by enterocytes
- stability to metabolic degradation operated by intestinal peptidases (in words) [3]: stable to the metabolic degradation operated by intestinal peptidases
